Measurements from US20070031415A1, “Regulation of interaction between rapl and rap1” (priority 2002, published 2007).

Molecular target: T1, binding between Rap1 and p30 (Homo sapiens, UniProt P62834+Q8WWW0)
T1 construct: made in house; 293T cells for Myc-p30 (crude lysate)
T1 sequence (P62834 1-184): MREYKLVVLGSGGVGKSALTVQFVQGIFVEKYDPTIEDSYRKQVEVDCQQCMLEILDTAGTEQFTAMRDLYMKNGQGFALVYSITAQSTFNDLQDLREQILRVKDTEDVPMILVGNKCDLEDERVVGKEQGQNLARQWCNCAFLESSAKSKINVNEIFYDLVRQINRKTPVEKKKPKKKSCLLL
T1 sequence (Q8WWW0 1-265 isoform Q8WWW0-2): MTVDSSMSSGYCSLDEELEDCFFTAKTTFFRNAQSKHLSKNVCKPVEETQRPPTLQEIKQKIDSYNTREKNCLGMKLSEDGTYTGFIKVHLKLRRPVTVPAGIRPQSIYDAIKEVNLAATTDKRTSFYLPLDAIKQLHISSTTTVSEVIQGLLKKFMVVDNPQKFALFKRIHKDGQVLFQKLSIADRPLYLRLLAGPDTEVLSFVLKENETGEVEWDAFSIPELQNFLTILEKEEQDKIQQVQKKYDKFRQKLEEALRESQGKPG
Experiment: Rap1-p30 binding inhibition assay (GST-Rap1 beads pull-down of Myc-p30 lysate, western blot)
Conditions: 1 μM compound, GTPγS-activated Rap1, reaction 4° C. 30 sec; FIG. 7
Description: For a plasmid for production of GST-Rap1 fusion protein, pGEX-3× (product of Amersham Pharmacia Biotech) was used. The Rap1 coding sequence represented by SEQ ID NO:1 was inserted between BamHI and EcoRI restriction enzyme sites of the vector. At this time, two nucleotide pair CC were added in front of the 5′ terminal ATG of the nucleotide sequence represented by SEQ ID NO:1 for frame adjustment. […] GGATCCCCATG . . . 3′. The obtained plasmid for production of GST-Rap1 fusion protein was transfected into E. coli. The E. coli with the inserted plasmid was cultured, and GST-Rap1 protein was produced within E. coli cells by inducing the protein production with 0.2 mM IPTG (isopropylthiogalactopyranoside) (30° C., 2 hours). The E. coli cells were recovered by centrifugation, solubilized in a lysis buffer (100 mM NaCl, 50 mM Tris-HCl (pH 7.5), 1% Triton X100, 2 mM MgCl2, 0.1 TIU/ml Aprotinin), and disrupted by sonication. The solution was centrifuged, and then glutathione Sepharose 4B beads (product of Amersham) was added to the obtained supernatant and reacted at 4° C. for one hour to prepare GST-Rap1 beads.
A plasmid of p30-Myc tag was introduced into 293T cells in 70% confluency by electroporation. […]
The bands visualized by exposing to the film for chemiluminescence were quantitated with use of image analyzing software (Win Roof, product of Mitani Corp.). […]

## CCS(=O)(=O)Nc1ncc(C(F)(F)F)cc1NC(=O)C1CCCCC1.O.[Na] [compound 1, N-(2-ethylsulfonylamino-5-trifluoromethyl-3-pyridyl)cyclohexanecarboxamide monosodium salt monohydrate]
  p30 band volume (brightness×area) of p30 bound to activated GST-Rap1, compared to group without addition: significantly lower
